Patent US6635652B1, “Azaindolizinone derivatives and cerebral function improvers containing the same as the active ingredient” (Zenyaku Kogyo Kabushiki Kaisha, priority 1999, dated 2003)
Marks after values point to notes of the source that are not given here.

Tests used:
[1] = tested on: amnesia of rats induced by scopolamine; experiment: Effects on scopolamine-induced amnesia (passive avoidance task, oral administration); type: in vivo; conditions: 60 min before retention trial, scopolamine hydrobromide 2 mg/kg i.p., passive avoidance latency, male Strague Dawley rats; for inhibition in vivo at 1 mg/kg / inhibition in vivo at 0.01 mg/kg: Rattus norvegicus, po, read-out: Inhibitory rate (%); for inhibition in vivo at 1 mg/kg: 1 mg/kg p.o.; for inhibition in vivo at 0.01 mg/kg / Inhibitory rate (%): 0.01 mg/kg p.o.
From the text: Male rats of the Strague Dawley strain at 8 weeks of age (260±2 g body weight) were used for evaluation through passive avoidance task. The apparatus of passive avoidance task comprises illuminated and dark chambers which are separated from each other by a wall with a door. Floors are constituted by grids made of stainless steel; only the grid in the dark chamber is furnished with wiring for electrification.
Effected on the first and second days of testing was preparative training; each rat was placed in the illuminated chamber and left for 3 minutes to habituate to the apparatus. On the third day of testing, the rats were individually placed in the illuminated chamber and after entering the dark chamber, the door was closed and the floor grid was electrified to deliver electric shock (100 V, 0.4 mA, a period of 0.8 sec). In order to induce amnesia, scopolamine hydrobromide (2 mg/kg) was intraperitoneally injected 20 minutes before the electric shock was delivered. Retention in memory on the electric shock was tested 24 hours later; more specifically, retention in passive avoidance trial was measured in terms of a time interval (latency) from placement of each rat in the illuminated chamber to its entry into the dark chamber. The latency over 300 seconds was recorded as 300 seconds. Respective test compounds were suspended in an aqueous solution of 1% carboxymethyl cellulose and orally administered at a dose of 0.01 or 1 mg/kg 60 minutes before the trial.
Antiamnesic effects of the test compounds were evaluated by inhibitory rate (%) which is calculated by the following formula: [formula]
wherein T stands for latency and SC stands for administration of scopolamine hydrobromide. Experimental results are shown in the following table in which, as to each of the test compounds, only the dose showing higher inhibitory rate was indicated.

Row | Compound | inhibition in vivo at 1 mg/kg [1] [%] | melting point | inhibition in vivo at 0.01 mg/kg [1] [%] | Inhibitory rate (%) [1]
1 | COC1=CC=CN2C1=NC(=O)C2(Cc1ccccc1)Cc1ccccc1 [Compound 2, 3,3-Dibenzyl-8-methoxyimidazo[1,2-a]pyridin-2(3H)-one] | 53 | 274 to 275 °C | – | –
2 | O=C1N=C2C(O)=CC=CN2C1(Cc1ccccc1)Cc1ccccc1 [Compound 36, 3,3-Dibenzyl-8-hydroxyimidazo[1,2-a]pyridin-2(3H)-one] | – | 283 to 285 °C | 30 | –
3 | O=C1N=C2C(NCc3ccccc3)=CC=CN2C1(Cc1ccccc1)Cc1ccccc1 [Compound 37, 3,3-Dibenzyl-8-benzylaminoimidazo[1,2-a]pyridin-2(3H)-one] | – | 250 °C | 56 | –
4 | NC1=CC=CN2C1=NC(=O)C2(Cc1ccccc1)Cc1ccccc1 [Compound 41, 8-Amino-3,3-dibenzylimidazo[1,2-a]pyridin-2(3H)-one] | – | 283 to 285 °C | 30 | –
5 | O=C1N=C2C(OCc3ccccc3)=CC=CN2C1(Cc1ccccc1)Cc1ccccc1 [Compound 6, 3,3-Dibenzyl-8-benzyloxyimidazo[1,2-a]pyridin-2(3H)-one] | – | 240 to 241 °C | 58.8 | –
6 | O=C1N=C2C=CC=CN2C1(Cc1ccc(-c2ccccc2)cc1)Cc1ccc(-c2ccccc2)cc1 [Compound 20, 3,3-bis(4-Biphenylmethyl)imidazo[1,2-a]pyridin-2(3H)-one] | – | – | – | 30.2* %
7 | O=C1N=C2C=CC=CN2C12Cc1cccc3cccc(c13)C2 [Compound 27, Spiro[imidazo[1,2-a]pyridin-2(3H)-one-3,2′-[2,3]dihydrophenalene]] | – | – | – | 60.7* %
8 | C#CCC1(CC#C)C(=O)N=C2C=CC=CN21 [Compound 35, 3,3-di(2-Propynyl)imidazo[1,2-a]pyridin-2(3H)-one] | – | 172 to 175 °C | 30.3 | –
9 | O=C1N=C2C(Cl)=CC(C(F)(F)F)=CN2C1(Cc1ccccc1)Cc1ccccc1 [Compound 13, 3,3-Dibenzyl-8-chloro-6-trifluoromethylimidazo[1,2-a]pyridin-2(3H)-one] | – | 234 to 236 °C | 57 | –
10 | O=C1N(c2ccccc2)c2ccccc2C1(Cc1ccncc1)Cc1ccncc1 [Compound A, 3,3-bis(4-pyridylmethyl)-1-phenylindolin-2-one, reference compound] | 20.9 | – | 8.8 | –
11 | C=CCC1(CC=C)C(=O)N=C2C=CC=CN21 [Compound 23, 3,3-Diallylimidazo[1,2-a]pyridin-2(3H)-one] | – | 64 to 66 °C | 53.6 | –
12 | O=C1N=C2C=CC(Cl)=CN2C1(Cc1ccccc1)Cc1ccccc1 [Compound 4, 3,3-Dibenzyl-6-chloroimidazo[1,2-a]pyridin-2(3H)-one] | 58.5 | 246 to 248 °C | – | –
13 | COc1cc2c(cc1OC)C(=O)C(CC1CCN(Cc3ccccc3)CC1)C2 (racemic) [Compound C, (R,S)-1-benzyl-4-(5,6-dimethoxy-1-indanon-2-yl)-methylpiperidine, reference compound] | 24.7 | – | 12.5 | –
14 | Cc1cccc(CC2(Cc3cccc(C)c3)C(=O)N=C3C(OCc4ccccc4)=CC=CN32)c1 [Compound 14, 8-Benzyloxy-3,3-bis(3-methylbenzyl)imidazo[1,2-a]pyridin-2(3H)-one] | 56.7 | 233 to 235 °C | – | –
15 | CC1(C)C(=O)N=C2C=CC=CN21 [Compound 33, 3,3-Dimethylimidazo[1,2-a]pyridin-2(3H)-one] | – | 200 to 202 °C | – | –
16 | O=C1N=C2C=CC=CN2C1(Cc1ccc(O)cc1)Cc1ccc(O)cc1 [Compound 22, 3,3-bis(4-Hydroxybenzyl)imidazo[1,2-a]pyridin-2(3H)-one] | – | 276.5 to 277.5 °C | 37.4 | –
17 | CC1=CC2=NC(=O)C(Cc3ccccc3)(Cc3ccccc3)N2C(C)=C1 [Compound 9, 3,3-Dibenzyl-5,7-dimethylimidazo[1,2-a]pyridin-2(3H)-one] | 66.4 | 237 to 238 °C | – | –
18 | O=C1N=C2C(Cl)=CC(Cl)=CN2C1(Cc1ccccc1)Cc1ccccc1 [Compound 12, 3,3-Dibenzyl-6,8-dichloroimidazo[1,2-a]pyridin-2(3H)-one] | – | 260 to 261 °C | – | –
19 | O=C1N=C2C=CC=CN2C1(Cc1ccc([N+](=O)[O-])cc1)Cc1ccc([N+](=O)[O-])cc1 [Compound 38, 3,3-bis(4-Nitrobenzyl)imidazo[1,2-a]pyridin-2(3H)-one] | 58.5 | > 300 °C | – | –

Row | Compound | inhibition in vivo at 1 mg/kg [1] [%] | melting point | inhibition in vivo at 0.01 mg/kg [1] [%] | Inhibitory rate (%) [1]
20 | C=CCC1(CC=C)C(=O)N=C2C(OCc3ccccc3)=CC=CN21 [Compound 25, 3,3-Diallyl-8-benzyloxyimidazo[1,2-a]pyridin-2(3H)-one] | – | 160 to 162 °C | – | –
21 | CC(C)OC1=CC=CN2C1=NC(=O)C2(Cc1ccccc1)Cc1ccccc1 [Compound 1, 3,3-Dibenzyl-8-isopropoxyimidazo[1,2-a]-pyridin-2(3H)-one] | 50.4 | 247 to 248 °C | – | –
22 | O=C1N=C2C=CC=CN2C1(Cc1cccc(Cl)c1)Cc1cccc(Cl)c1 [Compound 18, 3,3-bis(3-Chlorobenzyl)imidazo[1,2-a]pyridin-2(3H)-one] | 58.7 | 271 to 272 °C | – | –
23 | CN(C)c1ccc(CC2(Cc3ccc(N(C)C)cc3)C(=O)N=C3C=CC=CN32)cc1 [Compound 17, 3,3-bis(4-Dimethylaminobenzyl)imidazo[1,2-a]pyridin-2(3H)-one] | – | > 300 °C | 33.1 | –
24 | O=C1N=C2C=CC=CN2C1(Cc1cccs1)Cc1cccs1 [Compound 30, 3,3-bis(2-Thienylmethyl)imidazo[1,2-a]pyridin-2(3H)-one] | – | 289.5 °C (dec.) | 79.5 | –
25 | CC1=CC=CN2C1=NC(=O)C2(Cc1ccncc1)Cc1ccncc1 [Compound 15, 8-Methyl-3,3-bis(4-pyridylmethyl)imidazo[1,2-a]-pyridin-2(3H)-one] | – | 228 to 230 °C | – | –
26 | O=C1N=C2C=CC=CN2C1(Cc1ccco1)Cc1ccco1 [Compound 32, 3,3-bis(2-Furylmethyl)imidazo[1,2-a]pyridin-2(3H)-one] | – | 205 °C (dec.) | 77.4 | –
27 | O=C1N=C2C=CC=CN2C12Cc1ccccc1C2 [Compound 24, Spiro[imidazo[1,2-a]pyridin-2(3H)-one-3,2′-indan]] | – | – | – | 56.8** %
28 | CC(=O)NC1=CC=CN2C1=NC(=O)C2(Cc1ccccc1)Cc1ccccc1 [Compound 31, 8-Acetylamino-3,3-dibenzylimidazo[1,2-a]pyridin-2(3H)-one] | 60.4 | 235 to 237 °C | – | –
29 | CCCC1(CCC)C(=O)N=C2C=CC=CN21 [Compound 29, 3,3-Dipropylimidazo[1,2-a]pyridin-2(3H)-one] | 115 | 73 to 75 °C | – | –
30 | CC(c1ccccc1)C1(C(C)c2ccccc2)C(=O)N=C2C(OCc3ccccc3)=CC=CN21 (stereo not drawn) [Compound 7, 8-Benzyloxy-3,3-bis(1-phenylethyl)imidazo[1,2-a]-pyridin-2(3H)-one] | – | 234 to 235 °C | – | –
31 | O=C1N=C2C(OC3CCCC3)=CC=CN2C1(Cc1ccccc1)Cc1ccccc1 [Compound 11, 3,3-Dibenzyl-8-cyclopentyloxyimidazo[1,2-a]pyridin-2(3H)-one] | 48 | 268 to 269 °C | – | –
32 | N#Cc1ccc(CC2(Cc3ccc(C#N)cc3)C(=O)N=C3C=CC=CN32)cc1 [Compound 21, 3,3-bis(4-Cyanobenzyl)imidazo[1,2-a]pyridin-2(3H)-one] | – | 294 °C (dec.) | 58 | –
33 | CCCCC1(CCCC)C(=O)N=C2C=CC=CN21 [Compound 34, 3,3-Dibutylimidazo[1,2-a]pyridin-2(3H)-one] | – | 100.5 to 102 °C | 59.6 | –
34 | O=C(O)c1ccc(CC2(Cc3ccc(C(=O)O)cc3)C(=O)N=C3C=CC=CN32)cc1 [Compound 40, 3,3-bis(4-Carboxybenzyl)imidazo[1,2-a]pyridin-2(3H)-one] | 40.7 | > 300 °C | – | –
35 | O=C1N=C2C=CC=CN2C1(Cc1ccccc1)Cc1ccc(F)cc1 (stereo not drawn) [Compound 39, 3-Benzyl-3-(4-fluorobenzyl)imidazo[1,2-a]pyridin-2(3H)-one] | – | > 300 °C | 43.7 | –
36 | O=C1N=C2C=CC=CN2C1(Cc1ccc(F)cc1F)Cc1ccc(F)cc1F [Compound 28, 3,3-bis(2,4-Difluorobenzyl)imidazo[1,2-a]pyridin-2(3H)-one] | – | 269 to 271 °C | 62.7 | –
37 | Nc1c2c(nc3ccccc13)CCCC2 [Compound B, 9-amino-1,2,3,4-tetrahydro-acridine, reference compound] | 54.9 | – | 24.1 | –
